The results in this text go back to US20060052312A1, “Paclitaxel hybrid derivatives” (priority 2003, published 2006).

The subject of data set [1] is MCF7 human breast cancer cell. The data set can be described thus: Inhibition of MCF7 human breast cancer cell growth (non-MDR cell line). The settings on record: read-out: Potency (dose that inhibits MCF7 human breast cancer cell growth by 50%). In kind it is cell-based.
For data set [2], the system named is MDR over non-MDR human breast cancer cell lines. The data set can be described thus: MDR liability: growth inhibition in MDR over non-MDR human breast cancer cell lines. Type of data set: cell-based.
Data set [3] in a line: Stability of PAC esters in aqueous media at pH 7.4 and 37° C. In kind it is physicochemical. Particulars: read-out: T½ (apparent half-life in aqueous media) (converted).

For the compound `CC(=O)O[C@H]1C(=O)[C@@]2(C)[C@H]([C@H](OC(=O)c3ccccc3)[C@]3(O)C[C@H](OC(=O)[C@H](O)[C@@H](NC(=O)c4ccccc4)c4ccccc4)C(C)=C1C3(C)C)[C@]1(OC(C)=O)CO[C@@H]1C[C@@H]2O` [PAC, Paclitaxel], the IC50 in data set [1] was 6.9 nM. The MDR liability result in data set [2] was “about 1000 fold”. For the same compound, the “MDR Liability (ratio of doses inhibiting growth by 50% in MDR over non-MDR human breast cancer cell lines)” value in data set [2] (MDR over non-MDR human breast cancer cell lines) is listed as 1041. The half-life in data set [3] was 11.6 days.

In general, half-life refers to the time in which the quantity being followed falls by half.
